Measured values taken from the NIST ThermoML archive (doi:10.1016/j.jct.2013.06.009).
± gives the expanded uncertainty stated by the source.

Experiment: mn = molality of the nth substance listed, in mol/kg
Settings: 101.33 kPa, Liquid; for viscosity: Capillary tube (Ostwald / Ubbelohde) method; for mass density: Vibrating tube method

CO/N=C(\C(=O)N[C@@H]1C(=O)N2C(C(=O)O)=C(C[N+]3(C)CCCC3)CS[C@H]12)c1csc(N)n1.Cl.[Cl-] [cefepime dihydrochloride] + O
Settings	mass density [kg/m3]	viscosity [mPa·s]
278.15 K, m1 = 0.01005	1002 ± 0.21	1.544 ± 0.032
278.15 K, m1 = 0.02017	1004.01 ± 0.21	1.57 ± 0.033
278.15 K, m1 = 0.0304	1006.02 ± 0.21	1.597 ± 0.033
278.15 K, m1 = 0.05103	1009.98 ± 0.21	1.649 ± 0.034
278.15 K, m1 = 0.07222	1013.97 ± 0.21	1.705 ± 0.036
278.15 K, m1 = 0.09333	1017.86 ± 0.21	1.766 ± 0.037
278.15 K, m1 = 0.1154	1021.84 ± 0.21	1.824 ± 0.038
278.15 K, m1 = 0.1343	1025.19 ± 0.21	1.88 ± 0.039
278.15 K, m1 = 0.1521	1028.29 ± 0.21	1.937 ± 0.041
283.15 K, m1 = 0.01005	1001.73 ± 0.21	1.324 ± 0.028
283.15 K, m1 = 0.02017	1003.73 ± 0.21	1.348 ± 0.028
283.15 K, m1 = 0.0304	1005.73 ± 0.21	1.371 ± 0.029
283.15 K, m1 = 0.05103	1009.67 ± 0.21	1.416 ± 0.03
283.15 K, m1 = 0.07222	1013.62 ± 0.21	1.463 ± 0.031
283.15 K, m1 = 0.09333	1017.47 ± 0.21	1.517 ± 0.032
283.15 K, m1 = 0.1154	1021.4 ± 0.21	1.566 ± 0.033
283.15 K, m1 = 0.1343	1024.71 ± 0.21	1.613 ± 0.034
283.15 K, m1 = 0.1521	1027.79 ± 0.21	1.663 ± 0.035
288.15 K, m1 = 0.01005	1001.11 ± 0.21	1.148 ± 0.024
288.15 K, m1 = 0.02017	1003.1 ± 0.21	1.17 ± 0.025
288.15 K, m1 = 0.0304	1005.08 ± 0.21	1.19 ± 0.025
288.15 K, m1 = 0.05103	1008.98 ± 0.21	1.228 ± 0.026
288.15 K, m1 = 0.07222	1012.89 ± 0.21	1.269 ± 0.027
288.15 K, m1 = 0.09333	1016.7 ± 0.21	1.316 ± 0.028
288.15 K, m1 = 0.1154	1020.61 ± 0.21	1.359 ± 0.028
288.15 K, m1 = 0.1343	1023.89 ± 0.21	1.4 ± 0.029
288.15 K, m1 = 0.1521	1026.93 ± 0.21	1.443 ± 0.03
293.15 K, m1 = 0.01005	1000.2 ± 0.21	1.013 ± 0.021
293.15 K, m1 = 0.02017	1002.18 ± 0.21	1.031 ± 0.022
293.15 K, m1 = 0.0304	1004.15 ± 0.21	1.049 ± 0.022
293.15 K, m1 = 0.05103	1008.03 ± 0.21	1.082 ± 0.023
293.15 K, m1 = 0.07222	1011.91 ± 0.21	1.12 ± 0.023
293.15 K, m1 = 0.09333	1015.7 ± 0.21	1.161 ± 0.024
293.15 K, m1 = 0.1154	1019.57 ± 0.21	1.199 ± 0.025
293.15 K, m1 = 0.1343	1022.82 ± 0.21	1.235 ± 0.026
293.15 K, m1 = 0.1521	1025.83 ± 0.21	1.273 ± 0.027
298.15 K, m1 = 0.01005	999.04 ± 0.21	0.899 ± 0.019
298.15 K, m1 = 0.02017	1001.01 ± 0.21	0.9159 ± 0.019
298.15 K, m1 = 0.0304	1002.97 ± 0.21	0.9314 ± 0.019
298.15 K, m1 = 0.05103	1006.84 ± 0.21	0.9593 ± 0.02
298.15 K, m1 = 0.07222	1010.7 ± 0.21	0.9939 ± 0.021
298.15 K, m1 = 0.09333	1014.46 ± 0.21	1.029 ± 0.022
298.15 K, m1 = 0.1154	1018.29 ± 0.21	1.065 ± 0.022
298.15 K, m1 = 0.1343	1021.51 ± 0.21	1.096 ± 0.023
298.15 K, m1 = 0.1521	1024.5 ± 0.21	1.13 ± 0.024
303.15 K, m1 = 0.01005	997.63 ± 0.21	0.8046 ± 0.017
303.15 K, m1 = 0.02017	999.59 ± 0.21	0.8192 ± 0.017
303.15 K, m1 = 0.0304	1001.53 ± 0.21	0.8325 ± 0.017
303.15 K, m1 = 0.05103	1005.38 ± 0.21	0.8581 ± 0.018
303.15 K, m1 = 0.07222	1009.21 ± 0.21	0.8888 ± 0.019
303.15 K, m1 = 0.09333	1012.95 ± 0.21	0.9175 ± 0.019
303.15 K, m1 = 0.1154	1016.75 ± 0.21	0.9513 ± 0.02
303.15 K, m1 = 0.1343	1019.94 ± 0.21	0.9813 ± 0.021
303.15 K, m1 = 0.1521	1022.9 ± 0.21	1.01 ± 0.021
308.15 K, m1 = 0.01005	996.01 ± 0.21	0.7235 ± 0.015
308.15 K, m1 = 0.02017	997.96 ± 0.21	0.7352 ± 0.015
308.15 K, m1 = 0.0304	999.9 ± 0.21	0.7465 ± 0.016
308.15 K, m1 = 0.05103	1003.71 ± 0.21	0.7718 ± 0.016
308.15 K, m1 = 0.07222	1007.53 ± 0.21	0.7974 ± 0.017
308.15 K, m1 = 0.09333	1011.24 ± 0.21	0.8261 ± 0.017
308.15 K, m1 = 0.1154	1015.02 ± 0.21	0.8553 ± 0.018
308.15 K, m1 = 0.1343	1018.18 ± 0.21	0.881 ± 0.018
308.15 K, m1 = 0.1521	1021.12 ± 0.21	0.904 ± 0.019
313.15 K, m1 = 0.01005	994.18 ± 0.21	0.6561 ± 0.014
313.15 K, m1 = 0.02017	996.12 ± 0.21	0.6652 ± 0.014
313.15 K, m1 = 0.0304	998.04 ± 0.21	0.6753 ± 0.014
313.15 K, m1 = 0.05103	1001.85 ± 0.21	0.6976 ± 0.015
313.15 K, m1 = 0.07222	1005.64 ± 0.21	0.7193 ± 0.015
313.15 K, m1 = 0.09333	1009.33 ± 0.21	0.7448 ± 0.016
313.15 K, m1 = 0.1154	1013.07 ± 0.21	0.7705 ± 0.016
313.15 K, m1 = 0.1343	1016.22 ± 0.21	0.7947 ± 0.017
313.15 K, m1 = 0.1521	1019.14 ± 0.21	0.8162 ± 0.017
